Test results from patent publication US20260356819A1, “OXOISOINDOLINYL-SUBSTITUTED […] DERIVATIVE AND USE THEREOF” (GLUETACS THERAPEUTICS (SHANGHAI) CO., LTD., priority 2023, published 2026).

Experiments:
IKZF2 = biological target: T1, IKZF2 (Homo sapiens, UniProt Q96SW2+Q9UKS7); assay: Western blot degradation of IKZF2 in hPBMCs (24 h); type: cell-based; details: compounds at 50 nM and 500 nM
T1 construct: The supernatant was aspirated as the extracted total cell protein; endogenous in cells; host or cells: human peripheral blood mononuclear cells (hPBMCs)
Outline: (§1)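 In this assay, each compound was incubated with human PBMCs for 24 h at 50 nM and 500 nM. Target levels were measured by Western blot densitometry normalised to an internal control.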

CK1α = biological target: T2, CK1α (Homo sapiens, UniProt P48729+Q96SW2); assay: Western blot degradation of CK1α in hPBMCs (24 h); type: cell-based; details: compounds at 50 nM and 500 nM
T2 construct: The supernatant was aspirated as the extracted total cell protein; endogenous in cells; host or cells: human peripheral blood mononuclear cells (hPBMCs)
T2 sequence (P48729 whole entry): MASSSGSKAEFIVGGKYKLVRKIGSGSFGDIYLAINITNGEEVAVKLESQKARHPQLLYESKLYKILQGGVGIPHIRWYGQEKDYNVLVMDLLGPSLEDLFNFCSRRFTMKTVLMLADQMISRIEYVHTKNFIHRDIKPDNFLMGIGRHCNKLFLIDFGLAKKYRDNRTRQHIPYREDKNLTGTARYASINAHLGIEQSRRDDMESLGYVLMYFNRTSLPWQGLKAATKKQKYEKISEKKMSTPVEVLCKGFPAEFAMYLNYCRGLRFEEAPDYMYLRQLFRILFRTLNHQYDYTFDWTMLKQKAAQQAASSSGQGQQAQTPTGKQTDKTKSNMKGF
T2 sequence (Q96SW2 whole entry): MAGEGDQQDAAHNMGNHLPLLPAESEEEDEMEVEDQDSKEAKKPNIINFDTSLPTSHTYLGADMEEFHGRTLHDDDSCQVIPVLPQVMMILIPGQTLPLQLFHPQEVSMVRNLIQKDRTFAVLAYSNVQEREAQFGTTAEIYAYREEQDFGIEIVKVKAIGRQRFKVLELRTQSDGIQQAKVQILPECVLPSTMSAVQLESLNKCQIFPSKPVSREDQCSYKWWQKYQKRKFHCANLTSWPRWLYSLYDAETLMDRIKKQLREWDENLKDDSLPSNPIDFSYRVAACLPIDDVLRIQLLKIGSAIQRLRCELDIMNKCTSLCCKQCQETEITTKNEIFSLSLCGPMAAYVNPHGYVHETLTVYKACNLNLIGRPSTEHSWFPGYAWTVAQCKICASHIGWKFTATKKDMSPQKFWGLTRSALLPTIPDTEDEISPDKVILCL
T2 sequence (Q16531 whole entry partner): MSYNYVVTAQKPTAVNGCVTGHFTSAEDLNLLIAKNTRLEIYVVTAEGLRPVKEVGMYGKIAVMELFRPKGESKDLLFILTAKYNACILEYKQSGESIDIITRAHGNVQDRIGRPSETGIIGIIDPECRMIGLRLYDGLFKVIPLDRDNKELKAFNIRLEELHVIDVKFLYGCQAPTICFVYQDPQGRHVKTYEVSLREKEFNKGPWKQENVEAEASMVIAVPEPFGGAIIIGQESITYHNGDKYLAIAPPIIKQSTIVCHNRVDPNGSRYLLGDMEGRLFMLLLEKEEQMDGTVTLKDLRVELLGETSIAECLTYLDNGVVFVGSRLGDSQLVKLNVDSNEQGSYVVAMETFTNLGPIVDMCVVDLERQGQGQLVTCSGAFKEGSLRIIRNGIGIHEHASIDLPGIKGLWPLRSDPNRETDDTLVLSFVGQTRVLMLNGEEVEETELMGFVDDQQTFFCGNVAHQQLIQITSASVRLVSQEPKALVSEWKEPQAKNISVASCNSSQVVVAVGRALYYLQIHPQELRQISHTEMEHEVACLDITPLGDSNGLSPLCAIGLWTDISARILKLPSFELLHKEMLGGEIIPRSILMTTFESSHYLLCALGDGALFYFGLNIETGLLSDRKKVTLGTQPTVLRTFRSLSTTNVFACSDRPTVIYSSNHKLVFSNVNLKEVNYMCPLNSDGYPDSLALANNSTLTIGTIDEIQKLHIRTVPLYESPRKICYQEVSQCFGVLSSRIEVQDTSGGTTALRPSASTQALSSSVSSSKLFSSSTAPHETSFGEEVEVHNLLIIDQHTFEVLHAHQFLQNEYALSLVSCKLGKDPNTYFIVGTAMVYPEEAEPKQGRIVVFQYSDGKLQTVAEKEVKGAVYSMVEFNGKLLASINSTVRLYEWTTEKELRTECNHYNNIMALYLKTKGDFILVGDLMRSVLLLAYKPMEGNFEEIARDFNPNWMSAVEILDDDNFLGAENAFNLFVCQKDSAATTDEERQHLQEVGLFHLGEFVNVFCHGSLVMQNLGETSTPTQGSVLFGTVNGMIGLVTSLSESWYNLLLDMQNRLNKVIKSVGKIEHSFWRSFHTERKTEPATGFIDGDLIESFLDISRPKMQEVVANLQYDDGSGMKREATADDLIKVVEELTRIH
Outline: as §1

WEE1 = biological target: T3, WEE1 (Homo sapiens, UniProt P30291+Q96SW2); assay: Western blot degradation of WEE1 in hPBMCs (24 h); type: cell-based; details: compounds at 50 nM and 500 nM
T3 construct: The supernatant was aspirated as the extracted total cell protein; endogenous in cells; host or cells: human peripheral blood mononuclear cells (hPBMCs)
T3 sequence (P30291 whole entry): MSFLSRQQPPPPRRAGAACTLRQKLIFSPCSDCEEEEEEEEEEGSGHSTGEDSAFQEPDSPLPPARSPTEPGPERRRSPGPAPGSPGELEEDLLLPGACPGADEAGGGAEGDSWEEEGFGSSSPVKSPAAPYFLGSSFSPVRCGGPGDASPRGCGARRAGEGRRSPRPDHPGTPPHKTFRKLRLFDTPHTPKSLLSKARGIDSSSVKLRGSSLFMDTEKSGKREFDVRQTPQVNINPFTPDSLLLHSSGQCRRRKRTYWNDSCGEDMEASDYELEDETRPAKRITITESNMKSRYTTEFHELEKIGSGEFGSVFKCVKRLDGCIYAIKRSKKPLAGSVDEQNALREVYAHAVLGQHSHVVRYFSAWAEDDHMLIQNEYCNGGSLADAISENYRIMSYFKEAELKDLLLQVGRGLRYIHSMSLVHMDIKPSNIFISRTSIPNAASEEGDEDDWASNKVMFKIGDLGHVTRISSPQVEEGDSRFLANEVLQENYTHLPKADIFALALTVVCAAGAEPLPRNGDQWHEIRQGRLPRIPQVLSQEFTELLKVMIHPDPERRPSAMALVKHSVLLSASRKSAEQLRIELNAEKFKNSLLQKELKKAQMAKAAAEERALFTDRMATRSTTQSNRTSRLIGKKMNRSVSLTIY
T3 sequence (Q96SW2 whole entry): as the sequence (Q96SW2 whole entry) above
T3 sequence (Q16531 whole entry partner): as the sequence (Q16531 whole entry partner) above
Outline: as §1

GSPT1 = biological target: T4, GSPT1 (Homo sapiens, UniProt P15170+Q96SW2); assay: Western blot degradation of GSPT1 in hPBMCs (24 h); type: cell-based; details: compounds at 50 nM and 500 nM
T4 construct: The supernatant was aspirated as the extracted total cell protein; endogenous in cells; host or cells: human peripheral blood mononuclear cells (hPBMCs)
T4 sequence (P15170 whole entry): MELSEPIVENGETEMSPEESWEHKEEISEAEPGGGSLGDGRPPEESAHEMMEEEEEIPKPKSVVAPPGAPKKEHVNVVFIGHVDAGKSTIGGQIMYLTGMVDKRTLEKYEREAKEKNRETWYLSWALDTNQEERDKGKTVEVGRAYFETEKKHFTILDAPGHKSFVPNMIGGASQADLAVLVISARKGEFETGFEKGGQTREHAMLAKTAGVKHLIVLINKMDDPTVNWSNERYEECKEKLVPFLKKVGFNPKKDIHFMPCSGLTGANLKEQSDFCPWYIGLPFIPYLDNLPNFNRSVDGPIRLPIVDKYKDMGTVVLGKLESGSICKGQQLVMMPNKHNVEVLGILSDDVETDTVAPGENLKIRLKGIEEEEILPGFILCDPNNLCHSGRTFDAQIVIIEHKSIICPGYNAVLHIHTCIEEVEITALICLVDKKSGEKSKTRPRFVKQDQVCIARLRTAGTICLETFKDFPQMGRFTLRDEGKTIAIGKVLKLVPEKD
T4 sequence (Q96SW2 whole entry): as the sequence (Q96SW2 whole entry) above
T4 sequence (Q16531 whole entry partner): as the sequence (Q16531 whole entry partner) above
Outline: as §1

IKZF3 = biological target: T5, IKZF3 (Homo sapiens, UniProt Q96SW2+Q9UKT9); assay: Western blot degradation of IKZF3 in hPBMCs (24 h); type: cell-based; details: compounds at 50 nM and 500 nM
T5 construct: The supernatant was aspirated as the extracted total cell protein; endogenous in cells; host or cells: human peripheral blood mononuclear cells (hPBMCs)
T5 sequence (Q9UKT9 whole entry): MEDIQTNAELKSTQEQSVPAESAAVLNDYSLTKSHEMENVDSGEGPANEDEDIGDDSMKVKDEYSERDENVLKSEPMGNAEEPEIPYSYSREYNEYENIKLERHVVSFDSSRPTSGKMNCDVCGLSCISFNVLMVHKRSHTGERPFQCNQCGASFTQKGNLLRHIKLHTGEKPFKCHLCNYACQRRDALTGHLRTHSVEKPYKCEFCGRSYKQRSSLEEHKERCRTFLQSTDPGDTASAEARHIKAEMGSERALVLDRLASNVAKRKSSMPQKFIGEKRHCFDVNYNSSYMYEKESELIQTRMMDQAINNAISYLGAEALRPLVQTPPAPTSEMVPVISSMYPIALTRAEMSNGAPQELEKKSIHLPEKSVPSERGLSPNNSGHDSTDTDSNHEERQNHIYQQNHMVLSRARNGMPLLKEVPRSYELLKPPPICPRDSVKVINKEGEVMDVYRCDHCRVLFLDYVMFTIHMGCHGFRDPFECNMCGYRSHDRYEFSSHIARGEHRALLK
T5 sequence (Q96SW2 whole entry): as the sequence (Q96SW2 whole entry) above
T5 sequence (Q16531 whole entry partner): as the sequence (Q16531 whole entry partner) above
Outline: as §1

IKZF1 = biological target: T6, IKZF1 (Homo sapiens, UniProt Q13422+Q96SW2); assay: Western blot degradation of IKZF1 in hPBMCs (24 h); type: cell-based; details: compounds at 50 nM and 500 nM
T6 construct: The supernatant was aspirated as the extracted total cell protein; endogenous in cells; host or cells: human peripheral blood mononuclear cells (hPBMCs)
T6 sequence (Q13422 whole entry): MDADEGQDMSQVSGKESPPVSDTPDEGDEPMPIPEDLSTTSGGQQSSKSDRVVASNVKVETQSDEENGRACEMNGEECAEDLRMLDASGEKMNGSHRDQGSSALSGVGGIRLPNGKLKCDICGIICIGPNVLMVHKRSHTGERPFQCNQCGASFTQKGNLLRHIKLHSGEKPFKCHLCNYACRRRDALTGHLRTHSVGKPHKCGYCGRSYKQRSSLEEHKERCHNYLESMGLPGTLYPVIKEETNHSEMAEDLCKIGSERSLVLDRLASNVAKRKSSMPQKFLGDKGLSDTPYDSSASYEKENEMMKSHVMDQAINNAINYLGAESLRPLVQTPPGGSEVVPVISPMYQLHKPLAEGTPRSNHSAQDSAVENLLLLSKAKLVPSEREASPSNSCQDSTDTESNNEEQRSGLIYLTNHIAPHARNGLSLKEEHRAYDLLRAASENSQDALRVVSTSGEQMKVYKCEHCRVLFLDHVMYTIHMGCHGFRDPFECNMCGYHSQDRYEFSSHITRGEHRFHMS
T6 sequence (Q96SW2 whole entry): as the sequence (Q96SW2 whole entry) above
T6 sequence (Q16531 whole entry partner): as the sequence (Q16531 whole entry partner) above
Outline: as §1

MM.1S cells = assay: Inhibition of proliferation of multiple myeloma cells MM.1S (cell viability assay, 96 h); type: cell-based, human; details: read-out: inhibitory activity (IC50) against tumor cells proliferation, MM.1S
Method: The tumor cells used herein were cultured in a cell culture medium listed in table 2 at 37 °C in an incubator with 5% CO2. Prior to experimentation, all cell lines used were correctly identified by STR profiling, and tested negative for Mycoplasma contamination using a Mycoplasma detection kit through routine screenings.
The IC50 values of the compounds of the present disclosure (including the compounds in Table 1, and Examples 1-498) were determined using the CellTiter-Meiluncell Luminescent Cell Viability Assay Kit from Dalian Meilun Biotech Co., Ltd. The detailed procedure is as follows: Tumor cells were seeded in 96-well cell culture plates at the densities specified in Table 3. On the following day, the test compounds of the present disclosure were subjected to serial dilution. […] Subsequently, 0.5 μL of the test compound dilution was transferred into the 96-well plate containing the cells, with each well containing 100 μL of cell culture medium. […] Into the 96-well plate, the diluted test compounds and corresponding detection reagents were added, resulting in final test compound concentrations of 500 nM and 10 nM, respectively. The experimental procedure is described below using the diluted 2 μM test compound as an example.
0.5 μL of the aforementioned diluted compound of the present disclosure (including the compounds in Table 1, and Examples 1-498) was added to the seeded cells in 100 μL of medium, yielding a final test compound concentration of 10 nM. After the cells were treated with the compounds of the present disclosure for a specified period, the cell viability assay reagent was added to the culture medium according to the kit's instructions to determine cell viability. […] All controls were treated using the same procedure as the compounds of the present disclosure. The growth inhibition curves for the compounds of the present disclosure were plotted using Prism GraphPad software, and the IC50 values were calculated therefrom.

Cn1cc(C2=CCN(Cc3ccc4c(c3)CN(N3CCC(=O)NC3=O)C4=O)CC2)c2ccc(F)cc21 [GT-05167, 1-(5-((4-(6-fluoro-1-methyl-1H-indol-3-yl)-3,6-dihydropyridin-1 (2H)-yl)methyl)-1-oxoisoindolin-2-yl)dihydropyrimidine-2,4(1H,3H)-dione]
IKZF2 substrate protein remaining % (IKZF2): A (0% ≤ substrate protein remaining % ≤80%)
CK1α substrate protein remaining % (CK1α): B (80%< substrate protein remaining % ≤100%)
WEE1 substrate protein remaining % (WEE1): A (0% ≤ substrate protein remaining % ≤80%)
GSPT1 substrate protein remaining % (GSPT1): A (0% ≤ substrate protein remaining % ≤80%)
IKZF3 substrate protein remaining % (IKZF3): A (0% ≤ substrate protein remaining % ≤80%)
IKZF1 substrate protein remaining % (IKZF1): A (0% ≤ substrate protein remaining % ≤80%)
IC50 (MM.1S cells): 10 to 50 nM

O=C1CCN(N2Cc3cc(CN4CCC(c5c[nH]c6cc(F)ccc56)CC4)ccc3C2=O)C(=O)N1 [GT-05164, 1-(5-((4-(6-fluoro-1H-indol-3-yl)piperidin-1-yl)methyl)-1-oxoisoindolin-2-yl)dihydropyrimidine-2,4(1H,3H)-dione]
IKZF2 substrate protein remaining % (IKZF2): A (0% ≤ substrate protein remaining % ≤80%)
CK1α substrate protein remaining % (CK1α): B (80%< substrate protein remaining % ≤100%)
WEE1 substrate protein remaining % (WEE1): B (80%< substrate protein remaining % ≤100%)
GSPT1 substrate protein remaining % (GSPT1): A (0% ≤ substrate protein remaining % ≤80%)
IKZF3 substrate protein remaining % (IKZF3): B (80%< substrate protein remaining % ≤100%)
IKZF1 substrate protein remaining % (IKZF1): A (0% ≤ substrate protein remaining % ≤80%)
IC50 (MM.1S cells): 100 to 300 nM

O=C1CCN(N2Cc3cc(CN4CCC(c5ccsc5)CC4)ccc3C2=O)C(=O)N1 [GT-07371, 1-(1-oxo-5-((4-(thiophen-3-yl)piperidin-1-yl)methyl)isoindolin-2-yl)dihydropyrimidine-2,4(1H,3H)-dione]
IKZF2 substrate protein remaining % (IKZF2): B (80%< substrate protein remaining % ≤100%)
CK1α substrate protein remaining % (CK1α): B (80%< substrate protein remaining % ≤100%)
WEE1 substrate protein remaining % (WEE1): B (80%< substrate protein remaining % ≤100%)
GSPT1 substrate protein remaining % (GSPT1): A (0% ≤ substrate protein remaining % ≤80%)
IKZF3 substrate protein remaining % (IKZF3): A (0% ≤ substrate protein remaining % ≤80%)
IKZF1 substrate protein remaining % (IKZF1): B (80%< substrate protein remaining % ≤100%)
IC50 (MM.1S cells): 500 to 1000 nM

O=C1CCN(N2Cc3cc(CN4C[C@@H]5C[C@H]4CN5c4cccc(Cl)c4Cl)ccc3C2=O)C(=O)N1 [GT-05163, 1-(5-(((1S,4S)-5-(2,3-dichlorophenyl)-2,5-diazabicyclo[2.2.1]heptan-2-yl)methyl)-1-oxoisoindolin-2-yl)dihydropyrimidine-2,4(1H,3H)-dione]
IKZF2 substrate protein remaining % (IKZF2): A (0% ≤ substrate protein remaining % ≤80%)
CK1α substrate protein remaining % (CK1α): B (80%< substrate protein remaining % ≤100%)
WEE1 substrate protein remaining % (WEE1): B (80%< substrate protein remaining % ≤100%)
GSPT1 substrate protein remaining % (GSPT1): A (0% ≤ substrate protein remaining % ≤80%)
IKZF3 substrate protein remaining % (IKZF3): A (0% ≤ substrate protein remaining % ≤80%)
IKZF1 substrate protein remaining % (IKZF1): A (0% ≤ substrate protein remaining % ≤80%)
IC50 (MM.1S cells): 500 to 1000 nM

O=C1CCN(N2Cc3cc(CN4CC=C(c5ccnc6cc(F)ccc56)CC4)ccc3C2=O)C(=O)N1 [GT-05166, 1-(5-((4-(7-fluoroquinolin-4-yl)-3,6-dihydropyridin-1(2H)-yl)methyl)-1-oxoisoindolin-2-yl)dihydropyrimidine-2,4(1H,3H)-dione]
IKZF2 substrate protein remaining % (IKZF2): A (0% ≤ substrate protein remaining % ≤80%)
CK1α substrate protein remaining % (CK1α): B (80%< substrate protein remaining % ≤100%)
WEE1 substrate protein remaining % (WEE1): A (0% ≤ substrate protein remaining % ≤80%)
GSPT1 substrate protein remaining % (GSPT1): A (0% ≤ substrate protein remaining % ≤80%)
IKZF3 substrate protein remaining % (IKZF3): A (0% ≤ substrate protein remaining % ≤80%)
IKZF1 substrate protein remaining % (IKZF1): A (0% ≤ substrate protein remaining % ≤80%)
IC50 (MM.1S cells): 100 to 300 nM

CC1(C)CCC(CN2CCN(Cc3ccc4c(c3)CN(N3CCC(=O)NC3=O)C4=O)CC2)=C(c2ccc(Cl)cc2)C1 [GT-04944, 1-(5-((4-((4′-chloro-5,5-dimethyl-3,4,5,6-tetrahydro-[1,1′-biphenyl]-2-yl)methyl)piperazin-1-yl)methyl)-1-oxoisoindolin-2-yl)dihydropyrimidine-2,4(1H,3H)-dione]
IKZF2 substrate protein remaining % (IKZF2): B (80%< substrate protein remaining % ≤100%)
CK1α substrate protein remaining % (CK1α): B (80%< substrate protein remaining % ≤100%)
WEE1 substrate protein remaining % (WEE1): B (80%< substrate protein remaining % ≤100%)
GSPT1 substrate protein remaining % (GSPT1): A (0% ≤ substrate protein remaining % ≤80%)
IKZF3 substrate protein remaining % (IKZF3): B (80%< substrate protein remaining % ≤100%)
IKZF1 substrate protein remaining % (IKZF1): B (80%< substrate protein remaining % ≤100%)
IC50 (MM.1S cells): 500 to 1000 nM

Cc1ccc(Sc2ccccc2N2CCN(Cc3ccc4c(c3)CN(N3CCC(=O)NC3=O)C4=O)CC2)c(C)c1 [GT-04867, 1-(5-((4-(2-((2,4-dimethylphenyl)thio)phenyl)piperazin-1-yl)methyl)-1-oxoisoindolin-2-yl)dihydropyrimidine-2,4(1H,3H)-dione]
IKZF2 substrate protein remaining % (IKZF2): B (80%< substrate protein remaining % ≤100%)
CK1α substrate protein remaining % (CK1α): B (80%< substrate protein remaining % ≤100%)
WEE1 substrate protein remaining % (WEE1): B (80%< substrate protein remaining % ≤100%)
GSPT1 substrate protein remaining % (GSPT1): A (0% ≤ substrate protein remaining % ≤80%)
IKZF3 substrate protein remaining % (IKZF3): B (80%< substrate protein remaining % ≤100%)
IKZF1 substrate protein remaining % (IKZF1): A (0% ≤ substrate protein remaining % ≤80%)
IC50 (MM.1S cells): 500 to 1000 nM

CC1(C)CCC(CN2CC3CC(C2)N3Cc2ccc3c(c2)CN(N2CCC(=O)NC2=O)C3=O)=C(c2ccc(Cl)cc2)C1 [GT-06456, 1-(5-((3-((4′-chloro-5,5-dimethyl-3,4,5,6-tetrahydro-[1,1′-biphenyl]-2-yl)methyl)-3,6-diazabicyclo[3.1.1]heptan-6-yl)methyl)-1-oxoisoindolin-2-yl)dihydropyrimidine-2,4(1H,3H)-dione]
IKZF2 substrate protein remaining % (IKZF2): A (0% ≤ substrate protein remaining % ≤80%)
CK1α substrate protein remaining % (CK1α): A (0% ≤ substrate protein remaining % ≤80%)
WEE1 substrate protein remaining % (WEE1): A (0% ≤ substrate protein remaining % ≤80%)
GSPT1 substrate protein remaining % (GSPT1): A (0% ≤ substrate protein remaining % ≤80%)
IKZF3 substrate protein remaining % (IKZF3): A (0% ≤ substrate protein remaining % ≤80%)
IKZF1 substrate protein remaining % (IKZF1): A (0% ≤ substrate protein remaining % ≤80%)
IC50 (MM.1S cells): 100 to 300 nM

O=C1CCN(N2Cc3cc(CN4CC=C(c5cncc(Cl)c5Cl)CC4)ccc3C2=O)C(=O)N1 [GT-06393, 1-(5-((4,5-dichloro-3′,6′-dihydro-[3,4′-bipyridin]-1′ (2′H)-yl)methyl)-1-oxoisoindolin-2-yl)dihydropyrimidine-2,4(1H,3H)-dione]
IKZF2 substrate protein remaining % (IKZF2): A (0% ≤ substrate protein remaining % ≤80%)
CK1α substrate protein remaining % (CK1α): A (0% ≤ substrate protein remaining % ≤80%)
WEE1 substrate protein remaining % (WEE1): A (0% ≤ substrate protein remaining % ≤80%)
GSPT1 substrate protein remaining % (GSPT1): A (0% ≤ substrate protein remaining % ≤80%)
IKZF3 substrate protein remaining % (IKZF3): A (0% ≤ substrate protein remaining % ≤80%)
IKZF1 substrate protein remaining % (IKZF1): B (80%< substrate protein remaining % ≤100%)
IC50 (MM.1S cells): 500 to 1000 nM

O=C1CCN(N2Cc3cc(CN4CCN(C(c5ccc(F)cc5)c5ccc(F)cc5)CC4)ccc3C2=O)C(=O)N1 [GT-04894, 1-(5-((4-(bis(4-fluorophenyl)methyl)piperazin-1-yl)methyl)-1-oxoisoindolin-2-yl)dihydropyrimidine-2,4(1H,3H)-dione]
IKZF2 substrate protein remaining % (IKZF2): A (0% ≤ substrate protein remaining % ≤80%)
CK1α substrate protein remaining % (CK1α): B (80%< substrate protein remaining % ≤100%)
WEE1 substrate protein remaining % (WEE1): A (0% ≤ substrate protein remaining % ≤80%)
GSPT1 substrate protein remaining % (GSPT1): A (0% ≤ substrate protein remaining % ≤80%)
IKZF3 substrate protein remaining % (IKZF3): B (80%< substrate protein remaining % ≤100%)
IKZF1 substrate protein remaining % (IKZF1): A (0% ≤ substrate protein remaining % ≤80%)
IC50 (MM.1S cells): 500 to 1000 nM
